Like-named read-outs stand apart in the source and are kept apart here.
Assays:
[1] = tested on: human Vγ2Vδ2 type T cells; assay: Proliferation of Vγ2Vδ2 type T cells in treated peripheral blood mononuclear cells (ratio in CD3 cells); type: cell-based; conditions: day 11, peripheral blood mononuclear cells of volunteer G
Protocol: After 12 days, the cells were collected.
10 ml of the peripheral blood collected from a healthy volunteer G was subjected to Ficoll-Paque specific gravity centrifugation to purify the peripheral blood mononuclear cells and they were suspended in a Yssel's medium. The cells were apportioned into a 24-hole plate so that the number of the cells becomes a concentration of 2.5 million/1.5 ml/hole, and then, according to the above-mentioned method, treatments 1 to 5 were conducted as shown in Table 1. […] On the day 11 after conducting the treatment, a ratio of Vγ2Vδ2 type T cells in existing CD3 cells was calculated.

[2] = tested on: normal peripheral blood cells of A; conditions: treated peripheral bloods of A (after freezing and thawing) and F on normal peripheral blood cells of A
Protocol: In Test examples, treatment of the peripheral blood by 2-methyl-3-butenyl-1-pyrophosphoric acid or by a salt thereof was conducted as follows unless otherwise specified. Lymphocytes contained in the peripheral blood derived from healthy volunteer were treated so that the final concentration of the pyrophosphoric acid compound was 20 μM, and cultured in a Yssel's medium under conditions of temperature at 37° C. and a carbon dioxide concentration of 5%. […] After 12 days, the cells were collected.

[3] = for Stable preservation time in solution: neutral aqueous solution
[4] = tested on: human Vγ2Vδ2 type T cell clones
Vγ2Vδ2 type T cells = conditions: prior art; cited from earlier work

Row | Compound | Vγ2Vδ2 type T cells/CD3 cells ([1]; 2 μM sodium salt + interleukin-2 10 U/ml) [%] | Vγ2Vδ2 type T cells/CD3 cells ([1]; 20 μM sodium salt + interleukin-2 10 U/ml) [%] | Vγ2Vδ2 type T cells/CD3 cells ([1]; 200 μM sodium salt + interleukin-2 10 U/ml) [%] | Cytotoxicity of treated Vγ2Vδ2 type T cells on normal cells [2] | Dissociation of inorganic pyrophosphoric acid ([3]; acidic range of pH 4 or less) | Stable preservation time in solution ([3]; pH 6 to 7, room temperature) | Stable preservation time in solution ([3]; pH 6 to 7, −20° C.) | Amount in whose presence the human Vγ2Vδ2 type T cells proliferate [4] | Amount that can stimulate the cells ([4]; human Vγ2Vδ2 type T cell clones) | Concentration required to activate Vγ2Vδ2 type T cells (Vγ2Vδ2 type T cells)
1 | C=CC(C)COP(=O)([O-])OP(=O)([O-])[O-].[Na+].[Na+].[Na+] (centres unmarked) [sodium salt of 2-methyl-3-butenyl-1-pyrophosphoric acid] | 58.3 | 85.5 | 94.5 | do not attack the normal cells | observed within a few minutes | more than one week | more than one year | several hundreds μM | several hundreds nM to several tens μM | 
2 | C=C(C)CCOP(=O)(O)OP(=O)(O)O [isopentenyl pyrophosphoric acid] |  |  |  |  |  |  |  |  |  | several hundreds of μM to several mM
3 | CCOP(=O)(O)O [mono ethyl phosphoric acid] |  |  |  |  |  |  |  |  |  | several hundreds of μM to several mM
